According to the supplement of paper PMC13380429:

Key:
Settings in all cases: 72 h
Caco-2 [1] = assay: relative viability EC50 (midpoint between 100% and the lowest measured viability); higher = less toxic
HepG2 [2] = assay: as above
U2OS [3] = assay: as above
Calu-3 [4] = assay: as above
Vero E6 [5] = assay: as above
Caco-2 [6] = assay: drug sensitivity score (DSS) for viability; higher = more toxic; extreme values may be limits of the assay
HepG2 [7] = assay: as above
U2OS [8] = assay: as above
Calu-3 [9] = assay: as above
Vero E6 [10] = assay: as above
Caco-2 [11] = assay: cell viability relative to DMSO; higher = less toxic
HepG2 [12] = assay: as above
U2OS [13] = assay: as above
Calu-3 [14] = assay: as above
Vero E6 [15] = assay: as above

SMILES	relative viability EC50 (Caco-2 [1])	relative viability EC50 (HepG2 [2])	relative viability EC50 (U2OS [3])	relative viability EC50 (Calu-3 [4])	relative viability EC50 (Vero E6 [5])	drug sensitivity score (Caco-2 [6])	drug sensitivity score (HepG2 [7])	drug sensitivity score (U2OS [8])	drug sensitivity score (Calu-3 [9])	drug sensitivity score (Vero E6 [10])	cell viability (Caco-2 [11]; 1 nM)	cell viability (Caco-2 [11]; 10 nM)	cell viability (Caco-2 [11]; 100 nM)	cell viability (Caco-2 [11]; 1000 nM)	cell viability (Caco-2 [11]; 10000 nM)	cell viability (HepG2 [12]; 1 nM)	cell viability (HepG2 [12]; 10 nM)	cell viability (HepG2 [12]; 100 nM)	cell viability (HepG2 [12]; 1000 nM)	cell viability (HepG2 [12]; 10000 nM)	cell viability (U2OS [13]; 1 nM)	cell viability (U2OS [13]; 10 nM)	cell viability (U2OS [13]; 100 nM)	cell viability (U2OS [13]; 1000 nM)	cell viability (U2OS [13]; 10000 nM)	cell viability (Calu-3 [14]; 1 nM)	cell viability (Calu-3 [14]; 10 nM)	cell viability (Calu-3 [14]; 100 nM)	cell viability (Calu-3 [14]; 1000 nM)	cell viability (Calu-3 [14]; 10000 nM)	cell viability (Vero E6 [15]; 1 nM)	cell viability (Vero E6 [15]; 10 nM)	cell viability (Vero E6 [15]; 100 nM)	cell viability (Vero E6 [15]; 1000 nM)	cell viability (Vero E6 [15]; 10000 nM)
CC[N+]1(C)CCCC(OC(=O)C(O)(c2ccccc2)c2ccccc2)C1 (stereo not given) [pipenzolate]	> 10 µM	> 10 µM	> 10 µM	> 10 µM	> 10 µM	0	0	0	0	0	102%	100%	103%	95.2%	95.7%	89.3%	102%	97.7%	99.8%	94.3%	100%	95%	95.4%	93.3%	97.4%	96.3%	95.5%	93.3%	94.6%	91.8%	105%	101%	105%	103%	96.7%
C[C@@H]1O[C@@H](O[C@H]2[C@H](Oc3cc(O)c(C(=O)CCc4ccc(O)cc4)c(O)c3)O[C@H](CO)[C@@H](O)[C@@H]2O)[C@H](O)[C@H](O)[C@H]1O [naringin-dihydrochalcone]	> 10 µM	> 10 µM	> 10 µM	> 10 µM	> 10 µM	0	0	0	0	0	94.2%	92.2%	99.5%	102%	96.3%	110%	93.2%	105%	90.9%	101%	93.1%	96.2%	94.2%	102%	95.6%	95.6%	90.9%	92.7%	101%	105%	104%	104%	104%	102%	99.9%
CCOC(=S)SSC(=S)OCC [dixanthogen]	> 10 µM	> 10 µM	> 10 µM	> 10 µM	> 10 µM	0	0.1	0	0	0	104%	96.3%	104%	118%	104%	101%	111%	101%	95.1%	88.8%	104%	99.7%	100%	101%	104%	101%	106%	104%	96%	103%	97.3%	95.6%	91.5%	90.4%	97.3%
CCn1c(=O)[nH]c2cc(Cl)c(Cl)cc21 [DCEBIO]	> 10 µM	> 10 µM	> 10 µM	> 10 µM	> 10 µM	0	0	0	0	0	98.2%	97.2%	99.7%	93%	98.7%	101%	104%	104%	86.3%	107%	98%	103%	98.3%	98.3%	97%	101%	98.6%	93.8%	96.9%	102%	102%	100%	96%	99.9%	99.2%
